Reference: PubChem BioAssay AID248 (DTP/NCI, 2004)
Values joined by “and” are separate entries in the source; they are usually repeats but may differ in a detail not shown here. Equal values may be shown once. Inconclusive results and toxic doses are left out. Rule as the data show it: active = T/C of 150% or more; inactive = T/C below 125%.

System: L1210 leukemia ip in BDF1 mice, survival T/C
Experiment: NCI In Vivo Anticancer Drug Screen. Data for tumor model L1210 Leukemia (intraperitoneal) in B6D2F1 (BDF1) mice
Conditions: endpoint: mean survival time, higher = longer survival
Outline: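 Mice bearing the transplanted tumor received compound or vehicle. Survival of the treated group was divided by that of the vehicle-treated control group to give the ratio.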

[1] = dose: 50.0 mg/kg/injection, schedule: Q01DX001 (ip), vehicle: saline
[2] = dose: 100.0 mg/kg/injection, schedule: Q01DX001 (ip), vehicle: saline
[3] = dose: 200.0 mg/kg/injection, schedule: Q01DX001 (ip), vehicle: saline
[4] = dose: 400.0 mg/kg/injection, schedule: Q01DX001 (ip), vehicle: saline
[5] = dose: 12.5 mg/kg/injection, schedule: Q04DX003 (ip), vehicle: saline with Tween-80
[6] = dose: 25.0 mg/kg/injection, schedule: Q04DX003 (ip), vehicle: saline with Tween-80
[7] = dose: 100.0 mg/kg/injection, schedule: Q01DX009 (ip), vehicle: Klucel (hydroxypropylcellulose) (HPC)
[8] = dose: 200.0 mg/kg/injection, schedule: Q01DX009 (ip), vehicle: Klucel (hydroxypropylcellulose) (HPC)
[9] = dose: 400.0 mg/kg/injection, schedule: Q01DX009 (ip), vehicle: Klucel (hydroxypropylcellulose) (HPC)
[10] = dose: 100.0 mg/kg/injection, schedule: Q01DX009 (ip), vehicle: saline with Tween-80
[11] = dose: 100.0 mg/kg/injection, schedule: Q01DX001 (ip), vehicle: carboxymethylcellulose (CMC)
[12] = dose: 400.0 mg/kg/injection, schedule: Q01DX001 (ip), vehicle: carboxymethylcellulose (CMC)
[13] = dose: 50.0 mg/kg/injection, schedule: Q01DX009 (ip), vehicle: saline
[14] = dose: 100.0 mg/kg/injection, schedule: Q01DX009 (ip), vehicle: saline
[15] = dose: 100.0 mg/kg/injection, schedule: Q04DX002 (ip), vehicle: saline
[16] = dose: 200.0 mg/kg/injection, schedule: Q01DX009 (ip), vehicle: saline
[17] = dose: 200.0 mg/kg/injection, schedule: Q04DX002 (ip), vehicle: saline
[18] = dose: 50.0 mg/kg/injection, schedule: Q01DX009 (ip), vehicle: saline with Tween-80
[19] = dose: 200.0 mg/kg/injection, schedule: Q01DX009 (ip), vehicle: saline with Tween-80

Measured: T/C

NC(=S)N/N=C1/CCCCC12CCCCC2
inactive: [1] 116 % of control | [2] 91 % of control | [3] 124 % of control | [4] 100 % of control

COc1cc(-c2nc3c4ccccc4c4ccccc4c3[nH]2)cc(OC)c1OC
inactive: dose: 100.0 mg/kg/injection, schedule: Q04DX003 (ip), vehicle: Klucel (hydroxypropylcellulose) (HPC) 94 % of control | dose: 200.0 mg/kg/injection, schedule: Q04DX003 (ip), vehicle: Klucel (hydroxypropylcellulose) (HPC) 96 % of control | dose: 400.0 mg/kg/injection, schedule: Q04DX003 (ip), vehicle: Klucel (hydroxypropylcellulose) (HPC) 105 % of control

CC1CC[N-]CC1.CC1CC[N-]CC1.[Br][Pt+2]([Br])([Br])[Br]
inactive: dose: 6.25 mg/kg/injection, schedule: Q01DX009 (ip), vehicle: saline with Tween-80 108 % of control | dose: 12.5 mg/kg/injection, schedule: Q01DX009 (ip), vehicle: saline with Tween-80 113 % of control | [5] 104 % of control | [6] 105 % of control

Nc1ncc(C(=O)O)s1
inactive: [7] 98 % of control | [8] 103 % of control | [9] 87 % of control

COc1ccc(NC(=O)C(CC(C(C)=O)C(=O)Nc2ccc(OC)cc2)C(C)=O)cc1 (stereo not given)
inactive: [10] 87 % of control | dose: 400.0 mg/kg/injection, schedule: Q01DX009 (ip), vehicle: saline with Tween-80 88 % of control

Fc1ccc(NC(=S)S)cc1
inactive: dose: 6.25 mg/kg/injection, schedule: Q04DX003 (ip), vehicle: saline with Tween-80 94 % of control | [5] 99 % of control | [6] 91 % of control

CC1(C)OC(=O)CC1CCCC(=O)O (stereo not given)
inactive: dose: 100.0 mg/kg/injection, schedule: Q04DX002 (ip), vehicle: Klucel (hydroxypropylcellulose) (HPC) 104 % of control | dose: 200.0 mg/kg/injection, schedule: Q04DX002 (ip), vehicle: Klucel (hydroxypropylcellulose) (HPC) 96 % of control | dose: 400.0 mg/kg/injection, schedule: Q04DX002 (ip), vehicle: Klucel (hydroxypropylcellulose) (HPC) 96 % of control

N#CC(NC(N)=O)(c1ccccc1)c1ccccc1
inactive: dose: 50.0 mg/kg/injection, schedule: Q01DX001 (ip), vehicle: carboxymethylcellulose (CMC) 91 % of control | [11] 107 % of control | dose: 200.0 mg/kg/injection, schedule: Q01DX001 (ip), vehicle: carboxymethylcellulose (CMC) 96 % of control | [12] 91 % of control

CCOC(=O)C1(C(C)C)OC2(O)CCCCCN2C1=O (stereo not given)
inactive: [13] 95 % of control | [14] 100 % of control | [15] 89 % of control | [16] 95 % of control | [17] 92 % of control

CCOC(=O)c1ccc(NC(=O)CCl)cc1
inactive: dose: 25.0 mg/kg/injection, schedule: Q01DX015 (ip), vehicle: saline 98 % of control | [1] 106 % of control | dose: 50.0 mg/kg/injection, schedule: Q01DX015 (ip), vehicle: saline 100 % of control | [2] 104 % of control | dose: 100.0 mg/kg/injection, schedule: Q01DX015 (ip), vehicle: saline 98 % of control | [3] 101 % of control | [4] 97 % of control

O=S(=O)(Cl)OC1C2COC(O2)C(OS(=O)(=O)Cl)C1OS(=O)(=O)Cl (stereo not given)
inactive: [5] 102 % of control | [6] 92 % of control | dose: 50.0 mg/kg/injection, schedule: Q04DX003 (ip), vehicle: saline with Tween-80 96 % of control

Clc1ccc(SCNCc2ccccc2)cc1
inactive: [2] 100 % of control | [3] 94 % of control | [4] 96 % of control

CCC(=O)C(C)(C)c1ccccc1 (tested in a mixture with another compound)
inactive: [18] 95 % of control | [10] 88 % of control | [19] 96 % of control

Cc1ccc(N(Cc2ccccc2)Cc2ccccc2)cc1
inactive: dose: 75.0 mg/kg/injection, schedule: Q01DX009 (ip), vehicle: other 103 % of control | dose: 100.0 mg/kg/injection, schedule: Q04DX002 (ip), vehicle: other 105 % of control | dose: 150.0 mg/kg/injection, schedule: Q01DX009 (ip), vehicle: other 106 % of control | dose: 200.0 mg/kg/injection, schedule: Q04DX002 (ip), vehicle: other 97 % of control | dose: 300.0 mg/kg/injection, schedule: Q01DX009 (ip), vehicle: other 98 % of control | dose: 400.0 mg/kg/injection, schedule: Q04DX002 (ip), vehicle: other 97 % of control

Cc1ccc(S(=O)(=O)N(CCCc2c(C)nc(N)nc2N)c2ccccc2)cc1
inactive: [15] 110 % of control | [17] 104 % of control | dose: 400.0 mg/kg/injection, schedule: Q04DX002 (ip), vehicle: saline 91 % of control

O=S(=O)(O)CCN1CCN(CCS(=O)(=O)O)CC1
inactive: [7] 95 % of control | [8] 95 % of control | [9] 101 % of control

OCc1nc2nc(Cl)c(Cl)nc2[nH]1
inactive: [13] 93 % of control | [14] 98 % of control | dose: 100.0 mg/kg/injection, schedule: Q04DX003 (ip), vehicle: saline 107 % of control | [16] 95 % of control | dose: 200.0 mg/kg/injection, schedule: Q04DX003 (ip), vehicle: saline 98 % of control | dose: 400.0 mg/kg/injection, schedule: Q04DX003 (ip), vehicle: saline 96 % of control

O=c1[nH]c2ccccc2[nH]1
inactive: dose: 12.5 mg/kg/injection, schedule: Q04DX002 (ip), vehicle: Klucel (hydroxypropylcellulose) (HPC) 90 % of control | dose: 25.0 mg/kg/injection, schedule: Q04DX002 (ip), vehicle: Klucel (hydroxypropylcellulose) (HPC) 87 % of control | dose: 50.0 mg/kg/injection, schedule: Q01DX009 (ip), vehicle: Klucel (hydroxypropylcellulose) (HPC) 95 % of control | dose: 50.0 mg/kg/injection, schedule: Q04DX002 (ip), vehicle: Klucel (hydroxypropylcellulose) (HPC) 90 % of control | dose: 75.0 mg/kg/injection, schedule: Q01DX009 (ip), vehicle: Klucel (hydroxypropylcellulose) (HPC) 94 % of control | dose: 115.0 mg/kg/injection, schedule: Q01DX009 (ip), vehicle: Klucel (hydroxypropylcellulose) (HPC) 97 % of control | dose: 170.0 mg/kg/injection, schedule: Q01DX009 (ip), vehicle: Klucel (hydroxypropylcellulose) (HPC) 89 % of control

O=c1[nH]c2ccccc2c2cc3ccccc3cc12
inactive: dose: 88.8 mg/kg/injection, schedule: Q01DX001 (ip), vehicle: carboxymethylcellulose (CMC) 93 % of control and 102 % of control | [11] 93 % of control | dose: 133.4 mg/kg/injection, schedule: Q01DX001 (ip), vehicle: carboxymethylcellulose (CMC) 95 % of control and 102 % of control | dose: 300.0 mg/kg/injection, schedule: Q01DX001 (ip), vehicle: carboxymethylcellulose (CMC) 100 % of control and 88 % of control | [12] 93 % of control

Cc1cc2cccc[n+]2cc1C
inactive: dose: 12.5 mg/kg/injection, schedule: Q01DX009 (ip), vehicle: saline 95 % of control | dose: 25.0 mg/kg/injection, schedule: Q01DX009 (ip), vehicle: saline 98 % of control

COc1ccc(C2=C(C)CC3c4cc(OC)c(OC)cc4CCN3C2)cc1OC (stereo not given)
inactive: dose: 52.0 mg/kg/injection, schedule: Q01DX001 (ip), vehicle: carboxymethylcellulose (CMC) 101 % of control | dose: 78.0 mg/kg/injection, schedule: Q01DX001 (ip), vehicle: carboxymethylcellulose (CMC) 104 % of control | dose: 177.0 mg/kg/injection, schedule: Q01DX001 (ip), vehicle: carboxymethylcellulose (CMC) 118 % of control

CCCCCCCCCN1C(=O)c2ccccc2S1(=O)=O
inactive: dose: 222.0 mg/kg/injection, schedule: Q01DX Z (ip), vehicle: saline 100 % of control | dose: 333.0 mg/kg/injection, schedule: Q01DX Z (ip), vehicle: saline 97 % of control | dose: 500.0 mg/kg/injection, schedule: Q01DX Z (ip), vehicle: saline 91 % of control

C=CCNC(=S)Nc1ccc(N(C)C)cc1
inactive: [18] 94 % of control | [10] 100 % of control | dose: 100.0 mg/kg/injection, schedule: Q04DX003 (ip), vehicle: saline with Tween-80 103 % of control | [19] 103 % of control | dose: 200.0 mg/kg/injection, schedule: Q04DX003 (ip), vehicle: saline with Tween-80 95 % of control
